Data set [1] is described as follows: LogD determination: partition between 1-octanol and phosphate buffer pH 7.4. How it is done:
In the following, the lipophilicity of the labeled conjugates was investigated to get a first idea of the potential excretion pathway of the agents during an in vivo application. The logD values were determined by partition experiments between n-octanol and aqueous solution at pH 7.4.
The mixtures were intensively shaken for 5 min on a vibrating plate. After subsequent centrifugation at 13,000 rpm for 5 min, 125 µL were taken from each phase and measured in a γ-counter. The logD values were calculated from three or four independent experiments, each performed in triplicate.

Details of data set [2]: method as in PMID 32618007, PMID 32948032. To be noted: MIUs; mean ± SD; ref [20],[21]; cited from earlier work.
Details of data set [3]: method as in PMID 32618007, PMID 32948032. To be noted: ref [20],[21], cited from earlier work.

Like-named read-outs stand apart in the source and are kept apart here.

Broadly, the logD is lipophilicity at a set pH, counting ionised and neutral species.

Molecule `Cc1cc(/C=C/c2ccc(N(C)C)cc2)cc(C)[n+]1CCCC[C@H](NC(=O)CC[C@H](C(=O)O)N1CCN(CC(=O)O)CCN(CC(=O)O)CC1)C(=O)N[C@@H](CSC1CC(=O)N(CCCC(=O)NCCOCCOCCOCCOCCC(=O)NCCCC[C@@H]2NC(=O)[C@@H](Cc3ccccc3)NC(=O)[C@H](CC(=O)O)NC(=O)CNC(=O)[C@H](CCCNC(=N)N)NC2=O)C1=O)C(N)=O` (some centres unmarked) [7 c, c(RGDfK)-pyrylium-NODA-GA] showed a pH-dependent lipophilicity (logD) in data set [1] of -2.51 ± 0.09.

As to `NC(=O)[C@H](CS)NC(=O)CNC(=O)CC[C@H](C(=O)O)N1CCN(CC(=O)O)CCN(CC(=O)O)CC1` [Compound 10, thio-NODA-GA], the logD in data set [2] is on record as −3.35 ± 0.15.

In data set [1], `CCCC[C@H](NC(=O)CCOCCOCCOCCOCCNC(=O)CCCN1C(=O)CC(SC[C@H](NC(=O)[C@H](CCCCNC(=O)c2ccc(C3=C(/C=C/C4=[N+](CCCCS(=O)(=O)O)c5ccc6ccccc6c5C4(C)C)CCC/C3=C\C=C3\N(CCCCS(=O)(=O)[O-])c4ccc5ccccc5c4C3(C)C)cc2)NC(=O)CC[C@H](C(=O)O)N2CCN(CC(=O)O)CCN(CC(=O)O)CC2)C(N)=O)C1=O)C(=O)N[C@H]1CC(=O)NCCCC[C@@H](C(N)=O)NC(=O)[C@H](Cc2c[nH]c3ccccc23)NC(=O)[C@H](CCCNC(=N)N)NC(=O)[C@@H](Cc2ccccc2)NC(=O)[C@H](Cc2c[nH]cn2)NC1=O` (some centres unmarked) [9 b, Nle-c(DHfRWK)-cyanine-NODA-GA] showed a logD of -1.42 ± 0.13.

`CSCC[C@H](NC(=O)[C@H](CC(C)C)NC(=O)[C@H](Cc1c[nH]cn1)NC(=O)CNC(=O)[C@@H](NC(=O)[C@H](C)NC(=O)[C@H](Cc1c[nH]c2ccccc12)NC(=O)[C@H](CCC(N)=O)NC(=O)CCOCCOCCOCCOCCNC(=O)CCCN1C(=O)CC(SC[C@H](NC(=O)[C@H](CCCC[n+]2c(C)cc(/C=C/c3ccc(N(C)C)cc3)cc2C)NC(=O)CC[C@H](C(=O)O)N2CCN(CC(=O)O)CCN(CC(=O)O)CC2)C(N)=O)C1=O)C(C)C)C(N)=O` (some centres unmarked) [7 a, BBN7-14-pyrylium-NODA-GA]: the logD in data set [1] was -2.38 ± 0.02.

`CCCC[C@H](NC(=O)CCOCCOCCOCCOCCNC(=O)CCCN1C(=O)CC(SC[C@H](NC(=O)CNC(=O)CC[C@H](C(=O)O)N2CCN(CC(=O)O)CCN(CC(=O)O)CC2)C(N)=O)C1=O)C(=O)N[C@H]1CC(=O)NCCCC[C@@H](C(N)=O)NC(=O)[C@H](Cc2c[nH]c3ccccc23)NC(=O)[C@H](CCCNC(=N)N)NC(=O)[C@@H](Cc2ccccc2)NC(=O)[C@H](Cc2c[nH]cn2)NC1=O` (some centres unmarked) [[^68Ga]Ga-10 b, metal not drawn] showed a logD in data set [1] of -3.36 ± 0.02.

In data set [1], `CCCC[C@H](NC(=O)CCOCCOCCOCCOCCNC(=O)CCCN1C(=O)CC(SC[C@H](NC(=O)[C@H](CCCC[n+]2c(C)cc(/C=C/c3ccc(N(C)C)cc3)cc2C)NC(=O)CC[C@H](C(=O)O)N2CCN(CC(=O)O)CCN(CC(=O)O)CC2)C(N)=O)C1=O)C(=O)N[C@H]1CC(=O)NCCCC[C@@H](C(N)=O)NC(=O)[C@H](Cc2c[nH]c3ccccc23)NC(=O)[C@H](CCCNC(=N)N)NC(=O)[C@@H](Cc2ccccc2)NC(=O)[C@H](Cc2c[nH]cn2)NC1=O` (some centres unmarked) [7 b, Nle-c(DHfRWK)-pyrylium-NODA-GA] showed a logD of -2.03 ± 0.06.

In data set [1], `CCCC[C@H](NC(=O)CCOCCOCCOCCOCCNC(=O)CCCN1C(=O)CC(SC[C@H](NC(=O)[C@H](CCCCNS(=O)(=O)c2cccc3c(N(C)C)cccc23)NC(=O)CC[C@H](C(=O)O)N2CCN(CC(=O)O)CCN(CC(=O)O)CC2)C(N)=O)C1=O)C(=O)N[C@H]1CC(=O)NCCCC[C@@H](C(N)=O)NC(=O)[C@H](Cc2c[nH]c3ccccc23)NC(=O)[C@H](CCCNC(=N)N)NC(=O)[C@@H](Cc2ccccc2)NC(=O)[C@H](Cc2c[nH]cn2)NC1=O` (some centres unmarked) [8 b, Nle-c(DHfRWK)-dansyl-NODA-GA] registered a logD of -1.66 ± 0.03.

In turn, `CSCC[C@H](NC(=O)[C@H](CC(C)C)NC(=O)[C@H](Cc1c[nH]cn1)NC(=O)CNC(=O)[C@@H](NC(=O)[C@H](C)NC(=O)[C@H](Cc1c[nH]c2ccccc12)NC(=O)[C@H](CCC(N)=O)NC(=O)CCOCCOCCOCCOCCNC(=O)CCCN1C(=O)CC(SC[C@H](NC(=O)[C@H](CCCCNS(=O)(=O)c2cccc3c(N(C)C)cccc23)NC(=O)CC[C@H](C(=O)O)N2CCN(CC(=O)O)CCN(CC(=O)O)CC2)C(N)=O)C1=O)C(C)C)C(N)=O` (some centres unmarked) [8 a, BBN7-14-dansyl-NODA-GA] returned a logD in data set [1] of -1.44 ± 0.01.

`CN(C)c1cccc2c(S(=O)(=O)NCCCC[C@H](NC(=O)CC[C@H](C(=O)O)N3CCN(CC(=O)O)CCN(CC(=O)O)CC3)C(=O)N[C@@H](CSC3CC(=O)N(CCCC(=O)NCCOCCOCCOCCOCCC(=O)NCCCC[C@@H]4NC(=O)[C@@H](Cc5ccccc5)NC(=O)[C@H](CC(=O)O)NC(=O)CNC(=O)[C@H](CCCNC(=N)N)NC4=O)C3=O)C(N)=O)cccc12` (some centres unmarked) [8 c, c(RGDfK)-dansyl-NODA-GA] showed a logD in data set [1] of -2.17 ± 0.14.

`Cc1cc(/C=C/c2ccc(N(C)C)cc2)cc(C)[n+]1CCCC[C@H](NC(=O)CC[C@H](C(=O)O)N1CCN(CC(=O)O)CCN(CC(=O)O)CC1)C(=O)N[C@@H](CS)C(N)=O` [Compound 7]: the logD in data set [2] is −2.04 ± 0.11. Moreover, the “Stokes Shift” value in data set [3] (MIU, λex = 400 nm) was 160 nm. For the same molecule, in data set [3] (MIUs), the “log ε” value is 4.16 M^−1cm^−1 and the “λmax(abs)” value is recorded as 440 nm. Besides, the “λmax(em)” value in data set [3] (MIUs, λex = 400 nm) is on record as 600 nm.

`N=C(N)NCCC[C@@H]1NC(=O)[C@H](CCCCNC(=O)CCOCCOCCOCCOCCNC(=O)CCCN2C(=O)CC(SC[C@H](NC(=O)CNC(=O)CC[C@H](C(=O)O)N3CCN(CC(=O)O)CCN(CC(=O)O)CC3)C(N)=O)C2=O)NC(=O)[C@@H](Cc2ccccc2)NC(=O)[C@H](CC(=O)O)NC(=O)CNC1=O` (some centres unmarked) [10 c, c(RGDfK)-NODA-GA]: the logD in data set [1] is -4.06 ± 0.1.

Turning to `CSCC[C@H](NC(=O)[C@H](CC(C)C)NC(=O)[C@H](Cc1c[nH]cn1)NC(=O)CNC(=O)[C@@H](NC(=O)[C@H](C)NC(=O)[C@H](Cc1c[nH]c2ccccc12)NC(=O)[C@H](CCC(N)=O)NC(=O)CCOCCOCCOCCOCCNC(=O)CCCN1C(=O)CC(SC[C@H](NC(=O)CNC(=O)CC[C@H](C(=O)O)N2CCN(CC(=O)O)CCN(CC(=O)O)CC2)C(N)=O)C1=O)C(C)C)C(N)=O` (some centres unmarked) [[^68Ga]Ga-10 a, metal not drawn], the logD in data set [1] was -3.78 ± 0.04.

As to `CN(C)c1cccc2c(S(=O)(=O)NCCCC[C@H](NC(=O)CC[C@H](C(=O)O)N3CCN(CC(=O)O)CCN(CC(=O)O)CC3)C(=O)N[C@@H](CS)C(N)=O)cccc12` [Compound 8, thio-dansyl-NODA-GA], the logD in data set [2] is reported as −1.39 ± 0.04. Further, the “λmax(em)” value in data set [3] (MIUs, λex = 400 nm) is listed as 550 nm.

Take `CC1(C)C(/C=C/C2=C(c3ccc(C(=O)NCCCC[C@H](NC(=O)CC[C@H](C(=O)O)N4CCN(CC(=O)O)CCN(CC(=O)O)CC4)C(=O)N[C@@H](CS)C(N)=O)cc3)C(=C/C=C3/N(CCCCS(=O)(=O)[O-])c4ccc5ccccc5c4C3(C)C)/CCC2)=[N+](CCCCS(=O)(=O)O)c2ccc3ccccc3c21` [Compound 9, thio-cyanine-NODA-GA]: the logD in data set [2] was −1.29 ± 0.11. Further, in data set [3] (MIU, λex = 650 nm), the “Stokes Shift” value is given as 10 nm and the “λmax(em)” value is reported as 800 nm. Also, the “λmax(abs)” value in data set [3] (MIUs) was 720/790.

`CC1(C)C(/C=C/C2=C(c3ccc(C(=O)NCCCC[C@H](NC(=O)CC[C@H](C(=O)O)N4CCN(CC(=O)O)CCN(CC(=O)O)CC4)C(=O)N[C@@H](CSC4CC(=O)N(CCCC(=O)NCCOCCOCCOCCOCCC(=O)NCCCC[C@@H]5NC(=O)[C@@H](Cc6ccccc6)NC(=O)[C@H](CC(=O)O)NC(=O)CNC(=O)[C@H](CCCNC(=N)N)NC5=O)C4=O)C(N)=O)cc3)C(=C/C=C3/N(CCCCS(=O)(=O)[O-])c4ccc5ccccc5c4C3(C)C)/CCC2)=[N+](CCCCS(=O)(=O)O)c2ccc3ccccc3c21` (some centres unmarked) [9 c, c(RGDfK)-cyanine-NODA-GA] yielded a logD in data set [1] of -1.97 ± 0.18.
